Assay [1] relates to C3H10T½ mouse embryonic fibroblasts. Description: EdU proliferation assay (flow cytometry). In kind it is cell-based. The note with it: C3H10T½ cells, 1% FBS; for stimulation of proliferation relative to 1% FBS: 24 hr, 20 ng/ml PDGF, 2 μg/ml peptides; for stimulation of the PDGF ligand/receptor pathway inferred from inhibition of EdU levels by AG1296 cotreatment: cotreatment with 10 μM AG1296. How it is done: FIG. 8. Proliferation of C3H10T½ Cells Following Treatment with PDGF and Novel PDGF Mimetic Peptides. Cultured C3H10T½ mouse embryonic fibroblast cells were treated with 20 ng/ml recombinant PDGF−AB or PDGF−BB protein ligands, and 2 μg/ml of novel PDGF mimetics JC5 or JC5a for 24 hr, in the presence of 1% fetal bovine serum (FBS). Percent proliferating cell was determined after a 2 hr pulse with nucleotide analogue EdU at the end of the incubation period. […] Co-treatment of protein/peptides with 10 μM of PDGF receptor antagonist, AG1296, confirmed that PDGF-BB-stimulated proliferation occurred via the PDGF ligand/receptor pathway. […] Error bars represent ±SD, n=3. Statistical analysis was using One-Way Anova: * p<0.05; ** p<0.01; *** p<0.001; **** p<0.0001. The mitotic effects of PDGF mimetic peptides JC5 and JC5a were tested using cultured C3H10T½ mouse embryonic fibroblasts. Proliferation was assayed after a pulse of nucleotide analogue 5-ethynyl-2′-deoxyuridine (EdU) and fluorescent detection using flow cytometry. Cells were treated with 20 ng/ml PDGF−BB or PDGF−AB, and 2 μg/ml of peptides JC5 or JC5a, in the presence of 1% fetal bovine serum (FBS) and DMEM for 24 hr. 10% FBS was used as a positive control, and co-treatments with specific PDGF receptor antagonist, AG1296, was used to ascertain whether proliferation occurred via the PDGF ligand/receptor pathway. Assays were performed in biological triplicate.
(In general: In flow cytometry, cells or beads pass a laser one at a time.)

Assay [2] relates to C57BL6/J mice. Briefly: Murine model of acute myocardial infarction (permanent LAD occlusion), echocardiography and heart weight/tibia length. The format is in vivo, mouse. The note with it: for average day 2 to day 28 Δ ejection fraction: change from day 2 to day 28; for day 28 ejection fraction / decrease in ESV versus PBS (MI) cohort (mean diff.) / mean heart weight/tibia length / mean end systolic volume (ESV) at day 28 / mean end diastolic volume (EDV) at day 28: mice; for day 28 ejection fraction: 28 days post MI, 60 μg/kg PDGF−AB or 32.50 mg/kg peptide via implanted minipump, mean (±SD), PBS 26.89%; for decrease in ESV versus PBS (MI) cohort (mean diff.) / mean heart weight/tibia length / mean end systolic volume (ESV) at day 28 / mean end diastolic volume (EDV) at day 28: day 28 post MI; for mean heart weight/tibia length: PBS 0.01913; for mean end systolic volume (ESV) at day 28 / mean end diastolic volume (EDV) at day 28: minipump; for mean end systolic volume (ESV) at day 28: PBS 116.6 μL; for mean end diastolic volume (EDV) at day 28: PBS 155.9 μL. From the text: FIG. 9: Improved Cardiac function at Day 28 Post Myocardial Infarction. […] C) A decrease in end diastolic volumes was also observed in PDGF−AB (p=0.0016) and JC5 (p=0.0185) treated mice versus PBS. […] E) Timeline of mean EF per treatment group. Baseline indicates the pre-infarct EF per group. Day 2 and day 28 indicates days post infarct. A-C) Error bars represent ±SD. D) Data presented as median ±minimum and maximum values. One way ANOVA comparing all groups to the PBS vehicle control group (n=10/11).
FIG. 11: Decreased Heart Weight/Tibia Length in Mice Treated with JC5. […] Error bars represent ±SD.
Cardiac function was monitored using echocardiography with a post MI baseline at day 2 and a day 28 end point followed by tissue collection and calculation of heart weight divided by tibia length. Mice were randomised into treatment groups receiving either 60 μg/kg of the positive control recombinant human PDGF−AB, 32.50 mg/kg of novel mimetic peptide JC5, 32.50 mg/kg of novel mimetic peptide JC5a, or phosphate buffered saline (PBS) as a vehicle control, via implanted minipump, at the time of infarction. In addition to this sham controls were included using non-infarcted healthy mice receiving either 32.50 mg/kg of novel mimetic peptide JC5 or 32.50 mg/kg of novel mimetic peptide JC5a.
Left ventricular ejection fraction (LVEF) is directly proportionate to the difference between left ventricle end diastolic volume and the left ventricular end systolic volume (LVEDV-LVESV) and inversely proportionate to left ventricular end diastolic volume (LVEDV). The value is created by the following equation LVEF=(LVEDV-LVESV)/LVEDV. Increased end diastolic volume (EDV) indicates possible dilation of the ventricle whilst increased end systolic volume (ESV) indicates a possible decrease in contractile function. In mice treated with positive control PDGF−AB (MI) and novel mimetic peptide JC5 (MI) there was a significant decrease in both ESV and EDV at day 28 when compared to the vehicle control, PBS (MI), cohort. The decreased ESV of the PDGF−AB (MI) cohort at day 28 aligned with what was expected of the positive control with a mean ESV of 55.04 μL (±23.66), […] (mean diff.) less than the PBS (MI) cohort (p=0.0003). […] These were both a significant decrease from the PBS (MI) cohort with a mean EDV of 155.9 μL (±47.15) (JC5 p=0.0185, PDGF−AB p=0.0016).

The subject of assay [3] is C2C12 mouse myoblasts. Briefly: Collagen gel contraction assay with C2C12 cells. The format is cell-based. The note with it: for collagen gel contracted to % of its initial surface area: 24-hour incubation, 10 ng/ml PDGF, 1 μg/ml peptides, 10 μM AG1296, mean (±SD); for difference in collagen gel area versus negative control AG1296 co-treated with PDGF−AB (Mean Diff.) / difference in collagen gel area versus no treatment control (Mean Diff.): 24 hours; for difference in collagen gel area versus negative control AG1296 co-treated with PDGF−AB (Mean Diff.): vs negative control (55.25%); for difference in collagen gel area versus no treatment control (Mean Diff.): vs no treatment control (41.27%). An excerpt: FIG. 3. Collagen Contraction of C2C12 Mouse Fibroblasts Treated with PDGF and peptides JC5 and JC5a. […] Error bars represent ±SD, n=8/4. The function of Compounds Ia (also referred to herein as JC5) and Ib (also referred to herein as JC5a) has been tested in vitro on the continuous cell line, C2C12 mouse myoblasts. In these in vitro assays recombinant PDGF−AB and −BB have been used as positive controls along with a serum starved no treatment control and the PDGF receptor inhibitor AG1296 co-treated with PDGF−AB as a negative control. The in vitro assays were designed to assess the major known functions of PDGF whilst also considering functions that are relevant to its in vivo applications. These functions were chemotaxis, collagen contraction, vascular tube formation and activation of the PDGF receptors via phosphorylation of Akt and Erk. Collagen contraction is an important function during wound healing of many tissues including the heart. This can be simulated in vitro using a collagen gel contraction assay. This was assessed using C2C12 cells treated with the positive controls 10 ng/ml recombinant PDGF-BB and PDGF−AB, negative control 10 μM AG1296 co-treated with 10 ng/ml recombinant PDGF−AB, a serum starved no treatment control and 1 μg/ml of the peptides JC5 and JC5a. C2C12 mouse myoblasts were seeded in a 3D collagen gel crosslinked with NaOH and incubated at 37° C. for 24 hours following treatment with the four controls and peptides JC5 and JC5a.

In the case of `CCCCCCCCCCCCCCCC(=O)NCCCC[C@H](NC(=O)[C@H](CCC(=O)O)NC(=O)[C@H](Cc1ccc(O)cc1)NC(=O)[C@@H](CCC(=O)O)NC(=O)CCOCCOCCOCCNC(=O)CCOCCOCCOCCNC(=O)[C@@H](CCCCN)NC(=O)[C@@H](CCCCN)NC(=O)[C@@H](CCCNC(=N)N)NC(=O)[C@@H](NC(=O)[C@@H](NC(=O)[C@H](CCC(=O)O)NC(=O)[C@@H](NC(=O)[C@H](CCCCN)NC(=O)[C@@H](CCCNC(=N)N)NC(=O)[C@H](NC(=O)[C@H](N)CSSC[C@@H](N)C(=O)N[C@@H](C(=O)N[C@H](CCCNC(=N)N)C(=O)N[C@@H](CCCCN)C(=O)N[C@H](C(=O)N[C@@H](CCC(=O)O)C(=O)N[C@H](C(=O)N[C@H](C(=O)N[C@H](CCCNC(=N)N)C(=O)N[C@H](CCCCN)C(=O)N[C@H](CCCCN)C(=O)NCCOCCOCCOCCC(=O)NCCOCCOCCOCCC(=O)N[C@H](CCC(=O)O)C(=O)N[C@@H](Cc1ccc(O)cc1)C(=O)N[C@@H](CCC(=O)O)C(=O)N[C@@H](CCCCNC(=O)CCCCCCCCCCCCCCC)C(=O)N[C@@H](CCC(=O)O)C(=O)N[C@@H](Cc1ccc(O)cc1)C(=O)N[C@@H](CCC(=O)O)C(N)=O)C(C)C)[C@H](C)CC)[C@@H](C)CC)C(C)C)C(C)C)[C@@H](C)CC)[C@H](C)CC)C(C)C)C(=O)N[C@@H](CCC(=O)O)C(=O)N[C@@H](Cc1ccc(O)cc1)C(=O)N[C@@H](CCC(=O)O)C(N)=O` [JC5a, PDGF Loop III dimer USA dimer (CVRKIEIVRKK)2(Peg3)2(EYEK(Palm)EYE)2-C′], in assay [1], the “stimulation of proliferation relative to 1% FBS” value is given as “did not significantly stimulate proliferation”. Besides, the “average day 2 to day 28 Δ ejection fraction” value in assay [2] (mice post MI) turned out to be 10.82%. Also, the “day 2 to day 28 change in ejection fraction greater than PBS (MI) (mean diff.)” value in assay [2] (mice post MI, vs PBS vehicle control) amounted to 18.02%. The “day 28 ejection fraction” value in assay [2] was 39.24%. In addition, in assay [3], the “collagen gel contracted to % of its initial surface area” value (“collagen gel contracted to %” for short) amounted to 33.28% and the “difference in collagen gel area versus negative control AG1296 co-treated with PDGF−AB (Mean Diff.)” value (“difference … with PDGF−AB (Mean Diff.)” for short) was found to be 21.96%.
With “PDGF Loop III dimer HSA (CVRKIEIVRKK)2(Peg3)2EYEK(Palm)EYE-C′ [JC5]”, in assay [1], the “stimulation of the PDGF ligand/receptor pathway inferred from inhibition of EdU levels by AG1296 cotreatment” value is “weak stimulation of the PDGF ligand/receptor pathway” and the “stimulation of proliferation relative to 1% FBS” value is “did not significantly stimulate proliferation”. In addition, in assay [2] (mice post MI), the “average day 2 to day 28 Δ ejection fraction” value was 6.686%. In assay [2], the “day 28 ejection fraction” value is on record as 42.06%, the “decrease in ESV versus PBS (MI) cohort (mean diff.)” value came out at 49.58 µL, the “mean heart weight/tibia length” value turned out to be 0.01462 and the “mean end systolic volume (ESV) at day 28” value stood at 67.01 µL. In assay [2], the “mean end diastolic volume (EDV) at day 28” value is 108.6 µL. For the same compound, in assay [3], the “collagen gel contracted to %” value was 23.01%, the “difference … with PDGF−AB (Mean Diff.)” value is 32.23% and the “difference in collagen gel area versus no treatment control (Mean Diff.)” value came out at 18.26%.
As to “PDGF−AB: recombinant human PDGF−AB, AB heterodimer of recombinant PDGF, positive control”, in assay [1], the “stimulation of the PDGF ligand/receptor pathway inferred from inhibition of EdU levels by AG1296 cotreatment” value is “weak stimulation of the PDGF ligand/receptor pathway” and the “stimulation of proliferation relative to 1% FBS” value is “did not significantly stimulate proliferation”. Moreover, the “average day 2 to day 28 Δ ejection fraction” value in assay [2] (mice post MI) was found to be 7.104%. Moreover, in assay [2], the “day 28 ejection fraction” value was 43.44%, the “decrease in ESV versus PBS (MI) cohort (mean diff.)” value was found to be 61.54 µL, the “mean heart weight/tibia length” value amounted to 0.01344 and the “mean end systolic volume (ESV) at day 28” value came to 55.04 µL. For the same compound, the “mean end diastolic volume (EDV) at day 28” value in assay [2] was found to be 93.75 µL. Moreover, in assay [3], the “collagen gel contracted to %” value stood at 22.46%, the “difference … with PDGF−AB (Mean Diff.)” value is reported as 32.79% and the “difference in collagen gel area versus no treatment control (Mean Diff.)” value is listed as 18.82%.

These data come from patent publication US20260085101A1, “NOVEL PLATELET DERIVED GROWTH FACTOR PEPTIDE MIMETIC” (THE UNIVERSITY OF SYDNEY, priority 2022, published 2026).
